Test results as given in patent US20110160399A1, “HISTONE MODIFICATION INHIBITOR SPECIFIC TO TARGET GENE” (NIHON UNIVERSITY, priority 2008, published 2011).

Assays:
[1] = test system: MDA-MB231 breast cancer cells; test: Cell proliferation assay (II), trypan blue cell counts; format: cell-based; conditions: after culture for 72 hours, FIG. 12
Procedure: MDA-MB231 breast cancer cells (1×10^5 cells) were cultured in 6 cm diameter dishes using RPMI-1640 medium containing fetal bovine serum at a final concentration of 10%. For culture, the medium was supplemented with or without each polyamide (SAHA+p16NU PIP or SAHA+non-targeting PIP) at the final concentration indicated below.
Starting from the initiation of culture, the following operation was repeated every 24 hours. Namely, after being observed under a microscope, the cells were harvested and counted to determine the numbers of viable cells […] and dead cells […]. As a result, proliferation of the cells and their survival rate were determined.

[2] = test system: HeLa (human uterine cervical cancer cell line); test: Cell proliferation assay (WST-8) on HeLa cells; format: cell-based; conditions: 72 hours, various concentrations, WST-8, FIG. 3, FIG. 4
Procedure: Next, the synthesized compounds were verified by WST-8 assay for their ability to suppress cancer cell proliferation.
Cell lines of HeLa (human uterine cervical cancer cell line), LOVO, RKO and SW480 (each of which was a human large bowel cancer cell line) were each cultured at 37° C. under 5% carbon dioxide conditions using Dulbecco's modified Eagle's medium (DMEM, Nacalai Tesque, Inc., Japan) supplemented with 10% fetal bovine serum (FBS: JRH bioscience, USA), antibiotics (50 U/ml penicillin and 50 μg/ml streptomycin) and 1 mM sodium pyruvate. Single-layered cells grown to 80-90% confluency on 10 cm cell culture dishes were washed with D-PBS(−) (Nacalai Tesque, Inc., Japan) and then released from the dishes by being treated with a phenol red-containing 2.5 g/L-Trypsine/1 mmol/L EDTA solution (Nacalai Tesque, Inc., Japan). The released cells were adjusted and maintained in fresh medium.
Each cell line seeded at 3×10^3 cells/well in a MICROTEST tissue culture plate (96 well, FALCON) was cultured at 37° C. under 5% carbon dioxide conditions for 24 hours, and then cultured in the presence of various concentrations of PI polyamide for an additional 72 hours. After completion of the culture, 10 μl of viable cell counting reagent SF (Nacalai Tesque, Inc., Japan) was added to each well and the absorbance at 450 nm was measured by ARVO EX (PerkinElmer). During the period from reagent addition until assay, incubation was continued at 37° C. in the presence of 5% CO2 until the absorbance reached about 1.2 to 2.0 in the control sample where only 50% DMSO was added to the cells.

[3] = test system: histone deacetylase (HDAC); test: HDAC activity assay (HDAC Fluorimetric Assay/Drug Discovery Kit); format: biochemical, human; conditions: HDAC-containing HeLa cell nuclear fraction, 37°C for 1 hour, various concentrations, FIG. 2
Procedure: To verify whether the activity of histone deacetylase (HDAC) was inhibited by compounds composed of the synthesized SAHA derivatives and polyamides attached to each other, an HDAC Fluorimetric Assay/Drug Discovery Kit (BIOMOL international) was used in the experiment. Although details followed the instructions of the kit manufacturer, an HDAC-containing HeLa cell (human uterine cervical cancer cell line) nuclear fraction was added to an acetylation substrate and incubated at 37° C. for 1 hour in the presence of various concentrations of the synthesized compounds or trichostatin A (hereinafter referred to as TSA) used as a positive control, followed by addition of the developer included in the kit to stop the HDAC-catalyzed reaction. Then, the samples were transferred to a 96-well assay plate and measured with ARVO EX (Perkin Elmer) for emission at 460 nm from the reaction product upon excitation at 360 nm.

| Compound | cell proliferation significantly suppressed, compared to untreated group or 1 μM SAHA+non-targeting PIP ([1]; MDA-MB231, 1 μM) | cell proliferation significantly suppressed, compared to untreated group or 1 μM SAHA+non-targeting PIP ([1]; MDA-MB231, 2 μM) | suppression of HeLa cell proliferation [2] | anti-HDAC activity [3] | anti-HDAC activity ([3]; listed as conjugate between esterified SAHA and p16 PIP) |
| --- | --- | --- | --- | --- | --- |
| SAHA-H2NββPyPyβPyPyPyγImImImβPyImβDp [SAHA+p16NU PIP] | 83% | about 60% | – | – | – |
| CC(/C=C/C(=O)NO)=C\[C@@H](C)C(=O)c1ccc(N(C)C)cc1 [TSA, trichostatin A, reference compound] | – | – | proliferation inhibition | high activity | – |
| SAHA-(PEG) ββImPyPyβImPyγImPyβImImPyβDp [SAHA+ether linker+p16 PIP] | – | – | – | confirmed to have anti-HDAC activity | – |
| CN(C)CCCNC(=O)CCNC(=O)c1cc(NC(=O)c2cc(NC(=O)c3nc(NC(=O)CCCNC(=O)c4cc(NC(=O)c5nc(NC(=O)c6nc(NC(=O)CCNC(=O)CCNC(=O)c7ccc(NC(=O)CCCCCCC(=O)NO)cc7)cn6C)cn5C)cn4C)cn3C)cn2C)cn1C [SAHA+non-targeting PIP, SAHA-ββImPyPyγImImPyβDp] | – | – | not suppressed | confirmed to have anti-HDAC activity | – |
| COC(=O)CCCCCCC(=O)Nc1ccc(C(=O)NCCC(=O)NCCC(=O)Nc2cn(C)c(C(=O)Nc3cc(C(=O)Nc4cc(C(=O)NCCC(=O)Nc5cn(C)c(C(=O)Nc6cc(C(=O)NCCCC(=O)Nc7cn(C)c(C(=O)Nc8cc(C(=O)NCCC(=O)Nc9cn(C)c(C(=O)Nc%10cn(C)c(C(=O)Nc%11cc(C(=O)NCCC(=O)NCCCN(C)C)n(C)c%11)n%10)n9)n(C)c8)n7)n(C)c6)n5)n(C)c4)n(C)c3)n2)cc1 [esterified SAHA+p16 PIP, 4-(8-methoxy-8-oxooctanamido)benzoyl-ββImPyPyβImPyγImPyβImIm PyβDp] | – | – | not suppressed | no HDAC activity | did not inhibit HDAC activity |
| O=C(CCCCCCC(=O)Nc1ccccc1)NO [SAHA, suberoylanilide hydroxamic acid, reference compound] | – | – | did not suppress | – | – |
